# Experimental data as given in ChEMBL document CHEMBL4627383, “Optimization of 2-(1H-imidazo-2-yl)piperazines series of Trypanosoma brucei growth inhibitors as potential treatment for the second stage of HAT” (Bioorg Med Chem Lett, 2020).
# pEC50: −log10 of the molar value. The source made the active and inactive calls. The calls are words filed in the database; no cut-off is given here.
# Experiments:
# Trypanosoma brucei [1] = assay: Antitrypanosomal activity against Trypanosoma brucei assessed as parasite growth inhibition in presence of 10% FBS; assay type: functional, organism-based
# Trypanosoma brucei [2] = assay: Antitrypanosomal activity against Trypanosoma brucei assessed as parasite growth inhibition in presence of 50% mouse serum; assay type: functional, organism-based
# [3] = Permeability in porcine brain endothelial cells/rat astrocytes model system; assay type: ADME, cell-based; details: read-out: permeability
# [4] = Half life in human hepatocytes; assay type: ADME, cell-based, Hepatocyte
# [5] = Half life in mouse hepatocytes; assay type: ADME, cell-based, Hepatocyte
# [6] = test system: Trypanosoma brucei rhodesiense; assay: […] activity against Trypanosoma brucei rhodesiense assessed as reduction in parasite viability after 2 hrs by time kill assay; assay type: functional, organism-based
# [7] = Protein binding in mouse plasma assessed as unbound fraction; assay type: ADME, cell-free
# [8] = Oral bioavailability in C57BL6 mouse at 30 mg/kg; assay type: ADME, organism-based; details: in vivo
# [9] = Cmax in C57BL6 mouse at 30 mg/kg, ip; assay type: ADME, organism-based; parameters: dose 30 mg/kg, route intraperitoneal; details: in vivo
# [10] = (§1) Cytotoxicity against human HeLa cells assessed as reduction in cell viability; assay type: cell-based; details: HeLa cells
# [11] = (§2) Cytotoxicity against HUVEC assessed as reduction in cell viability; assay type: cell-based; details: human
# HeLa = assay: as §1; assay type: cell-based; details: hela
# HUVEC = assay: as §2; assay type: cell-based; details: human
Structure (SMILES),pEC50 (Trypanosoma brucei [1]),other results
COc1ccc2nc(C(F)(F)F)n(CC(=O)N3C[C@H](NC4CCOC4)CC[C@H]3c3ncc(-c4cc5ccccc5nc4OC)[nH]3)c2c1 (stereo partly specified),7.96,–
COc1ccc2nc(C(F)(F)F)n(CC(=O)N3CCCCC3c3ncc(-c4cc5ccccc5nc4OC)[nH]3)c2c1 (stereo unspecified),7.14,–
COc1ccc2nc(C(F)(F)F)n(CC(=O)N3CCOCC3c3ncc(-c4cc5ccccc5nc4OC)[nH]3)c2c1 (stereo unspecified),6.54,–
COc1ccc2nc(C(F)(F)F)n(C(=O)N3CCN(Cc4cnccn4)C[C@H]3c3ncc(-c4cc5ccccc5nc4OC)[nH]3)c2c1,8.22,–
COc1ccc2nc(C(F)(F)F)n(CC(=O)N3CCS(=O)(=O)CC3c3ncc(-c4cc5ccccc5nc4OC)[nH]3)c2c1 (stereo unspecified),6.45,–
COc1ccc2nc(C(F)(F)F)n(CC(=O)N3CC[C@H](NCC4CCOC4)C[C@H]3c3ncc(-c4cc5ccccc5nc4OC)[nH]3)c2c1 (stereo partly specified),7.77,–
COc1nc2ccccc2cc1-c1cnc([C@@H]2CN(CC3CCOC3)CCN2C(=O)n2c(C)nc3cncnc32)[nH]1 (stereo partly specified),6.42,–
COc1ccc2nc(C(F)(F)F)n(CC(=O)N3CCN(CC4CCOC4)CCC3c3ncc(-c4cc5ccccc5nc4OC)[nH]3)c2c1 (stereo unspecified),7.29,–
COc1ccc2[nH]c(C)c(CC(=O)N3CCN(CC4CCOC4)CC3c3ncc(-c4ccc5ccccc5c4)[nH]3)c2c1 (stereo unspecified),–,Activity (HeLa): Non-Toxic; Activity (HUVEC): Non-Toxic
COc1ccc2nc(C(F)(F)F)n(CC(=O)N3CC[C@@H](N(C)C)C[C@H]3c3ncc(-c4cc5ccccc5nc4OC)[nH]3)c2c1,6.18,–
COc1ccc2nc(C)n(C(=O)N3CCN(CC4CCOC4)C[C@H]3c3ncc(-c4cc5ccccc5nc4OC)[nH]3)c2c1 (stereo partly specified),7.49,–
COc1ccc2nc(C(F)(F)F)n(C(=O)N3CCN(C4CCN(C)CC4)C[C@H]3c3ncc(-c4cc5ccccc5nc4OC)[nH]3)c2c1,6.74,–

# The remaining compounds from weak to strong by pEC50 (Trypanosoma brucei [1]), led by results:
pEC50 (Trypanosoma brucei [1]),Structure (SMILES),other results
6.79,COc1nc2ccccc2cc1-c1cnc([C@@H]2CN(CC3CCOC3)CCN2C(=O)n2c(C)nc3ccccc32)[nH]1 (stereo partly specified),–
7.01,COc1ccc2nc(C(F)(F)F)n(CC(=O)N3CC[C@H](N(C)C)C[C@H]3c3ncc(-c4cc5ccccc5nc4OC)[nH]3)c2c1,–
7.64,COc1ccc2[nH]c(C)c(C(=O)N3CCN(CC4CCOC4)C[C@H]3c3ncc(-c4cc5ccccc5nc4OC)[nH]3)c2c1 (mixture of isomers),–
7.70,COc1nc2ccccc2cc1-c1cnc([C@@H]2CN(CC3CCOC3)CCN2C(=O)n2c(C(F)(F)F)nc3ccccc32)[nH]1 (stereo partly specified),pEC50 (Trypanosoma brucei [2]): 6.07; Papp [3]: 8.6 ×10⁻⁶ cm/s; half-life [4]: 2.6 h; half-life [5]: 0.8 h; Activity [6]: Active; fraction unbound [7]: 0.0204; bioavailability [8]: 133%; Cmax [9]: 6.9 µM
8.05,COc1ccc2nc(C(F)(F)F)n(C(=O)N3CCN(CC4CCOC4)C[C@H]3c3ncc(-c4cc5ccccc5nc4OC)[nH]3)c2c1 (stereo partly specified),–
8.15,COc1ccc2nc(C(F)(F)F)n(CC(=O)N3CC[C@H](NC4CCOC4)C[C@H]3c3ncc(-c4cc5ccccc5nc4OC)[nH]3)c2c1 (stereo partly specified),pEC50 (Trypanosoma brucei [2]): 6.63; half-life [4]: 3.1 h; half-life [5]: 4 h; fraction unbound [7]: 0.047; bioavailability [8]: 103%; Cmax [9]: 5 µM; CC50 [10]: 7490 nM; CC50 [11]: 3680 nM
8.70,COc1ccc2nc(C(F)(F)F)n(C(=O)N3CCN(Cc4nccs4)C[C@H]3c3ncc(-c4cc5ccccc5nc4OC)[nH]3)c2c1,–
